# What was measured:
# Settings in all cases: 72 h
# Caco-2 [1] = experiment: cell viability relative to DMSO; higher = less toxic
# Calu-3 [2] = experiment: as above
# HepG2 [3] = experiment: as above
# U2OS [4] = experiment: as above
# Vero E6 [5] = experiment: as above
# Caco-2 [6] = experiment: relative viability EC50 (midpoint between 100% and the lowest measured viability); higher = less toxic
# Calu-3 [7] = experiment: as above
# HepG2 [8] = experiment: as above
# U2OS [9] = experiment: as above
# Vero E6 [10] = experiment: as above
# Caco-2 [11] = experiment: drug sensitivity score (DSS) for viability; higher = more toxic; extreme values may be limits of the assay
# Calu-3 [12] = experiment: as above
# HepG2 [13] = experiment: as above
# U2OS [14] = experiment: as above
# Vero E6 [15] = experiment: as above
smiles,measurement,setting,value
COC(=O)[C@@H](N)CCCNC(=N)N[N+](=O)[O-] [L-NAME],cell viability,Caco-2 [1]; 1 nM,94.6%
same,cell viability,Caco-2 [1]; 10 nM,97.3%
same,cell viability,Caco-2 [1]; 100 nM,94.4%
same,cell viability,Caco-2 [1]; 1000 nM,97.8%
same,cell viability,Caco-2 [1]; 10000 nM,106%
same,cell viability,Calu-3 [2]; 1 nM,96%
same,cell viability,Calu-3 [2]; 10 nM,106%
same,cell viability,Calu-3 [2]; 100 nM,99.6%
same,cell viability,Calu-3 [2]; 1000 nM,94.7%
same,cell viability,Calu-3 [2]; 10000 nM,114%
same,cell viability,HepG2 [3]; 1 nM,97.4%
same,cell viability,HepG2 [3]; 10 nM,104%
same,cell viability,HepG2 [3]; 100 nM,94.5%
same,cell viability,HepG2 [3]; 1000 nM,95.4%
same,cell viability,HepG2 [3]; 10000 nM,116%
same,cell viability,U2OS [4]; 1 nM,101%
same,cell viability,U2OS [4]; 10 nM,97.9%
same,cell viability,U2OS [4]; 100 nM,103%
same,cell viability,U2OS [4]; 1000 nM,101%
same,cell viability,U2OS [4]; 10000 nM,110%
same,cell viability,Vero E6 [5]; 1 nM,97.7%
same,cell viability,Vero E6 [5]; 10 nM,96.6%
same,cell viability,Vero E6 [5]; 100 nM,99.9%
same,cell viability,Vero E6 [5]; 1000 nM,98.6%
same,cell viability,Vero E6 [5]; 10000 nM,105%
same,relative viability EC50,Caco-2 [6],> 10 µM
same,relative viability EC50,Calu-3 [7],> 10 µM
same,relative viability EC50,HepG2 [8],> 10 µM
same,relative viability EC50,U2OS [9],> 10 µM
same,relative viability EC50,Vero E6 [10],> 10 µM
same,drug sensitivity score,Caco-2 [11],0
same,drug sensitivity score,Calu-3 [12],0
same,drug sensitivity score,HepG2 [13],0
same,drug sensitivity score,U2OS [14],0
same,drug sensitivity score,Vero E6 [15],0
CC(=O)NCCNc1cc(Cl)nn2c(-c3cccc(S(=O)(=O)N(C)C)c3)c(C)nc12 [MI-14],cell viability,Caco-2 [1]; 1 nM,99.1%
same,cell viability,Caco-2 [1]; 10 nM,92.2%
same,cell viability,Caco-2 [1]; 100 nM,99.5%
same,cell viability,Caco-2 [1]; 1000 nM,93.1%
same,cell viability,Caco-2 [1]; 10000 nM,83.3%
same,cell viability,Calu-3 [2]; 1 nM,99.1%
same,cell viability,Calu-3 [2]; 10 nM,96.2%
same,cell viability,Calu-3 [2]; 100 nM,98.2%
same,cell viability,Calu-3 [2]; 1000 nM,102%
same,cell viability,Calu-3 [2]; 10000 nM,75.8%
same,cell viability,HepG2 [3]; 1 nM,102%
same,cell viability,HepG2 [3]; 10 nM,89.4%
same,cell viability,HepG2 [3]; 100 nM,87.4%
same,cell viability,HepG2 [3]; 1000 nM,77.2%
same,cell viability,HepG2 [3]; 10000 nM,78.8%
same,cell viability,U2OS [4]; 1 nM,98.8%
same,cell viability,U2OS [4]; 10 nM,101%
same,cell viability,U2OS [4]; 100 nM,99.6%
same,cell viability,U2OS [4]; 1000 nM,98.2%
same,cell viability,U2OS [4]; 10000 nM,89.5%
same,cell viability,Vero E6 [5]; 1 nM,95.6%
same,cell viability,Vero E6 [5]; 10 nM,98%
same,cell viability,Vero E6 [5]; 100 nM,96.5%
same,cell viability,Vero E6 [5]; 1000 nM,93.2%
same,cell viability,Vero E6 [5]; 10000 nM,93.5%
same,relative viability EC50,Caco-2 [6],> 10 µM
same,relative viability EC50,Calu-3 [7],> 10 µM
same,relative viability EC50,HepG2 [8],> 10 µM
same,relative viability EC50,U2OS [9],> 10 µM
same,relative viability EC50,Vero E6 [10],> 10 µM
same,drug sensitivity score,Caco-2 [11],0.9
same,drug sensitivity score,Calu-3 [12],0.8
same,drug sensitivity score,HepG2 [13],4.4
same,drug sensitivity score,U2OS [14],0
same,drug sensitivity score,Vero E6 [15],0
CC(C)(C)CCN1C[C@@H]2[C@@H](CNC(=O)c3cc(Cl)cc(Cl)c3)[C@@H]2C1 [ML218],cell viability,Caco-2 [1]; 1 nM,104%
same,cell viability,Caco-2 [1]; 10 nM,97.4%
same,cell viability,Caco-2 [1]; 100 nM,97.4%
same,cell viability,Caco-2 [1]; 1000 nM,92.8%
same,cell viability,Caco-2 [1]; 10000 nM,88.6%
same,cell viability,Calu-3 [2]; 1 nM,108%
same,cell viability,Calu-3 [2]; 10 nM,109%
same,cell viability,Calu-3 [2]; 100 nM,104%
same,cell viability,Calu-3 [2]; 1000 nM,99.6%
same,cell viability,Calu-3 [2]; 10000 nM,90.7%
same,cell viability,HepG2 [3]; 1 nM,95.2%
same,cell viability,HepG2 [3]; 10 nM,108%
same,cell viability,HepG2 [3]; 100 nM,96.3%
same,cell viability,HepG2 [3]; 1000 nM,96.9%
same,cell viability,HepG2 [3]; 10000 nM,92.7%
same,cell viability,U2OS [4]; 1 nM,99.7%
same,cell viability,U2OS [4]; 10 nM,97.9%
same,cell viability,U2OS [4]; 100 nM,96.8%
same,cell viability,U2OS [4]; 1000 nM,102%
same,cell viability,U2OS [4]; 10000 nM,93.1%
same,cell viability,Vero E6 [5]; 1 nM,101%
same,cell viability,Vero E6 [5]; 10 nM,101%
same,cell viability,Vero E6 [5]; 100 nM,103%
same,cell viability,Vero E6 [5]; 1000 nM,100%
same,cell viability,Vero E6 [5]; 10000 nM,91.8%
same,relative viability EC50,Caco-2 [6],> 10 µM
same,relative viability EC50,Calu-3 [7],> 10 µM
same,relative viability EC50,HepG2 [8],> 10 µM
same,relative viability EC50,U2OS [9],> 10 µM
same,relative viability EC50,Vero E6 [10],> 10 µM
same,drug sensitivity score,Caco-2 [11],0
same,drug sensitivity score,Calu-3 [12],0
same,drug sensitivity score,HepG2 [13],0
same,drug sensitivity score,U2OS [14],0
same,drug sensitivity score,Vero E6 [15],0
c1cnc(NCc2ccc(CNc3ncccn3)cc2)nc1 [MSX-122],cell viability,Caco-2 [1]; 1 nM,92.9%
same,cell viability,Caco-2 [1]; 10 nM,100%
same,cell viability,Caco-2 [1]; 100 nM,107%
same,cell viability,Caco-2 [1]; 1000 nM,112%
same,cell viability,Caco-2 [1]; 10000 nM,99.2%
same,cell viability,Calu-3 [2]; 1 nM,104%
same,cell viability,Calu-3 [2]; 10 nM,100%
same,cell viability,Calu-3 [2]; 100 nM,109%
same,cell viability,Calu-3 [2]; 1000 nM,99.4%
same,cell viability,Calu-3 [2]; 10000 nM,113%
same,cell viability,HepG2 [3]; 1 nM,90.6%
same,cell viability,HepG2 [3]; 10 nM,103%
same,cell viability,HepG2 [3]; 100 nM,102%
same,cell viability,HepG2 [3]; 1000 nM,92.3%
same,cell viability,HepG2 [3]; 10000 nM,101%
same,cell viability,U2OS [4]; 1 nM,94.7%
same,cell viability,U2OS [4]; 10 nM,103%
same,cell viability,U2OS [4]; 100 nM,106%
same,cell viability,U2OS [4]; 1000 nM,99.4%
same,cell viability,U2OS [4]; 10000 nM,99.8%
same,cell viability,Vero E6 [5]; 1 nM,101%
same,cell viability,Vero E6 [5]; 10 nM,98.6%
same,cell viability,Vero E6 [5]; 100 nM,100%
same,cell viability,Vero E6 [5]; 1000 nM,103%
same,cell viability,Vero E6 [5]; 10000 nM,99.1%
same,relative viability EC50,Caco-2 [6],> 10 µM
same,relative viability EC50,Calu-3 [7],> 10 µM
same,relative viability EC50,HepG2 [8],> 10 µM
same,relative viability EC50,U2OS [9],> 10 µM
same,relative viability EC50,Vero E6 [10],> 10 µM
same,drug sensitivity score,Caco-2 [11],0
same,drug sensitivity score,Calu-3 [12],0
same,drug sensitivity score,HepG2 [13],0
same,drug sensitivity score,U2OS [14],0
same,drug sensitivity score,Vero E6 [15],0
CC(C)(O)CS(=O)(=O)Nc1ccc2c(c1)CCN(C(=O)COc1cccnc1)C2 [Nampt-IN-1],cell viability,Caco-2 [1]; 1 nM,100%
same,cell viability,Caco-2 [1]; 10 nM,99.8%
same,cell viability,Caco-2 [1]; 100 nM,84.5%
same,cell viability,Caco-2 [1]; 1000 nM,4%
same,cell viability,Caco-2 [1]; 10000 nM,3.7%
same,cell viability,Calu-3 [2]; 1 nM,93.2%
same,cell viability,Calu-3 [2]; 10 nM,88.1%
same,cell viability,Calu-3 [2]; 100 nM,50.8%
same,cell viability,Calu-3 [2]; 1000 nM,6.2%
same,cell viability,Calu-3 [2]; 10000 nM,5.7%
same,cell viability,HepG2 [3]; 1 nM,98.2%
same,cell viability,HepG2 [3]; 10 nM,100%
same,cell viability,HepG2 [3]; 100 nM,50.2%
same,cell viability,HepG2 [3]; 1000 nM,20.1%
same,cell viability,HepG2 [3]; 10000 nM,16.2%
same,cell viability,U2OS [4]; 1 nM,108%
same,cell viability,U2OS [4]; 10 nM,104%
same,cell viability,U2OS [4]; 100 nM,6.2%
same,cell viability,U2OS [4]; 1000 nM,-0.1%
same,cell viability,U2OS [4]; 10000 nM,0.1%
same,cell viability,Vero E6 [5]; 1 nM,105%
same,cell viability,Vero E6 [5]; 10 nM,103%
same,cell viability,Vero E6 [5]; 100 nM,104%
same,cell viability,Vero E6 [5]; 1000 nM,3.3%
same,cell viability,Vero E6 [5]; 10000 nM,2.4%
same,relative viability EC50,Caco-2 [6],0.193 µM
same,relative viability EC50,Calu-3 [7],0.0828 µM
same,relative viability EC50,HepG2 [8],0.0823 µM
same,relative viability EC50,U2OS [9],0.0392 µM
same,relative viability EC50,Vero E6 [10],0.348 µM
same,drug sensitivity score,Caco-2 [11],20
same,drug sensitivity score,Calu-3 [12],22.9
same,drug sensitivity score,HepG2 [13],21.2
same,drug sensitivity score,U2OS [14],29.3
same,drug sensitivity score,Vero E6 [15],17.1
CC(=O)OC[C@H](N)C(=O)O [O-acetyl-L-serine],cell viability,Caco-2 [1]; 1 nM,104%
same,cell viability,Caco-2 [1]; 10 nM,109%
same,cell viability,Caco-2 [1]; 100 nM,90.3%
same,cell viability,Caco-2 [1]; 1000 nM,106%
same,cell viability,Caco-2 [1]; 10000 nM,94.9%
same,cell viability,Calu-3 [2]; 1 nM,111%
same,cell viability,Calu-3 [2]; 10 nM,97.6%
same,cell viability,Calu-3 [2]; 100 nM,105%
same,cell viability,Calu-3 [2]; 1000 nM,92.5%
same,cell viability,Calu-3 [2]; 10000 nM,97.1%
same,cell viability,HepG2 [3]; 1 nM,115%
same,cell viability,HepG2 [3]; 10 nM,103%
same,cell viability,HepG2 [3]; 100 nM,106%
same,cell viability,HepG2 [3]; 1000 nM,110%
same,cell viability,HepG2 [3]; 10000 nM,95.2%
same,cell viability,U2OS [4]; 1 nM,104%
same,cell viability,U2OS [4]; 10 nM,104%
same,cell viability,U2OS [4]; 100 nM,99.3%
same,cell viability,U2OS [4]; 1000 nM,105%
same,cell viability,U2OS [4]; 10000 nM,98.9%
same,cell viability,Vero E6 [5]; 1 nM,114%
same,cell viability,Vero E6 [5]; 10 nM,89.8%
same,cell viability,Vero E6 [5]; 100 nM,99.2%
same,cell viability,Vero E6 [5]; 1000 nM,103%
same,cell viability,Vero E6 [5]; 10000 nM,104%
same,relative viability EC50,Caco-2 [6],> 10 µM
same,relative viability EC50,Calu-3 [7],> 10 µM
same,relative viability EC50,HepG2 [8],> 10 µM
same,relative viability EC50,U2OS [9],> 10 µM
same,relative viability EC50,Vero E6 [10],> 10 µM
same,drug sensitivity score,Caco-2 [11],0
same,drug sensitivity score,Calu-3 [12],0
same,drug sensitivity score,HepG2 [13],0
same,drug sensitivity score,U2OS [14],0
same,drug sensitivity score,Vero E6 [15],0
